Non-standard residues stand in square brackets, D forms with d. No end group written: not given here.
How the values were obtained:
[1] = biological target: CXCR4 receptor on human Namalwa Burkitt's lymphoma cells (human) (UniProt P61073); test: flow cytometry on Namalwa cells; inhibition of 12G5-PE binding to CXCR4
CXCR4 receptor = biological target: T1, CXCR4 receptor (Homo sapiens, UniProt P61073); test: CXCR4 binding assay (inhibition of 12G5-PE anti-CXCR4 antibody binding, flow cytometry); details: linked DV3 and TAT domains versus single domains, FIG. 1B
T1 construct: CXCR4 expressing Namalwa cells were washed 3 times with PBS/0.5% BSA and incubated on ice; endogenous in cells; host or cells: Namalwa B cells (human Burkitt's lymphoma, ATCC)
T1 sequence (P61073 whole entry, the tested form may be a part): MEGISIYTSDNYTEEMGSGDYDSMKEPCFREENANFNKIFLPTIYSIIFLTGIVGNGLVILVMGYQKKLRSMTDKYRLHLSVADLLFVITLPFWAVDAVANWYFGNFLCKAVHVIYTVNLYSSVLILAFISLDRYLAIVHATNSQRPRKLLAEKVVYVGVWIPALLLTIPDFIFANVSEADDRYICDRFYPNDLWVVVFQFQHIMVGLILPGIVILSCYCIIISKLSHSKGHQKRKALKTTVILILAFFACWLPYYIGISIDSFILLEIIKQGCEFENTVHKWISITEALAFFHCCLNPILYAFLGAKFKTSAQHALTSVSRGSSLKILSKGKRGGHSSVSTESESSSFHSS
Method: (a) Sequences of peptides used in some embodiments. All peptides were synthesized using D-isomer residues, except for the TAT-RxL peptides. (b) Human Namalwa lymphoma cells that overexpress CXCR4 receptor were incubated with increasing concentrations of peptide, followed by fluorescent PE-conjugated anti-CXCR4 monoclonal antibody incubation, then analyzed for antibody binding to CXCR4 receptor (mean fluorescence) by flow cytometry. Graph plots relative fluorescence of cells with respect to cells treated with antibody only. Data represents the mean and standard error from three independent experiments.
CXCR4 binding assay. CXCR4 expressing Namalwa cells were washed 3 times with PBS/0.5% BSA and incubated on ice with phycoerythrin (PE)-labeled anti-CXCR4 monoclonal antibody (12G5-PE, R&D Systems, WI) and peptide. PE-labeled isotype matched antibody was used to control for non-specific cell surface binding. […]
DV3 Enhances the Affinity of TAT Peptides for CXCR4 Expressing Cells. […] Human Namalwa Burkitt's lymphoma cells overexpressing the CXCR4 receptor were treated with various peptides to block the CXCR4 receptor, then incubated with phycoerythrin (PE) conjugated anti-CXCR4 antibody and analyzed by flow cytometry.

[2] = tested on: CXCR4-expressing Namalwa lymphoma cells; test: Namalwa lymphoma cell killing (trypan blue exclusion; apoptosis by DNA content); type: cell-based, Human; details: for cell viability / cell number (in words): 30 μM peptide, single peptides or domains in trans, FIG. 3A
Method: (a) Namalwa lymphoma cells were treated with 40 μM TATp53C′ or DV3-TATp53C′ peptide for 48 h. Cell viability was assessed by trypan blue exclusion. Data represents the mean and standard error from three independent experiments. […] Cells were treated with 5 μM peptide for 24 hours and analyzed for DNA content by flow cytometry. […] Cells were treated with indicated concentrations of cdk2 antagonists TAT-RxL or DV3-TAT-RxL peptides for 48 h. Cell viability was assessed by trypan blue exclusion. Data represents the mean and standard error from three independent experiments. (e) Namalwa lymphoma (CXCR4+) cells were treated with DV3-TATp53C′, TATp53C′ or DV3-TATp53MUT peptides for 24 hours. Apoptosis was determined by <2N DNA content as measured by flow cytometry and DNA staining.
Namalwa lymphoma cells were treated with 30 μM peptide for 48 h. Cell viability was assessed by trypan blue exclusion. Data represents the mean and standard error from three independent experiments. […] Cells were treated with 30 μM DV3-TATp53C′ or parental TATp53C′ peptide for 48 h in the presence or absence of a 200 μM excess of DV3 peptide. Cell viability was assessed by trypan blue exclusion. Data represents the mean and standard error from three independent experiments.
Cell Culture and Flow Cytometry. TA3/St, H1299 and 293T cells were maintained in DMEM plus 10% fetal bovine serum (FBS) and penicillin/streptomycin (P/S). Namalwa B cells (ATCC) were maintained in RPMI plus 10% FBS, P/S. All cells were maintained at 37° C. in 5% CO2. Short-term cell viability was assessed by counting Trypan blue excluding cells on a hemocytometer. For cell cycle analysis, peptide treated cells were analyzed by FACS with 10 μg/ml propidium iodide in 0.5% NP-40. DNA profiles were analyzed using a FACScan and CellQuest software (Becton Dickinson, San Jose, Calif.).

[3] = tested on: TA3/St mammary carcinoma cells; test: Peptide treatment of CXCR4 non-expressing TA3/St cells (cell cycle by flow cytometry); type: cell-based; details: 5 μM peptide, 24 hours, DNA content by flow cytometry, FIG. 2B
Method: (§1) (a) Namalwa lymphoma cells were treated with 40 μM TATp53C′ or DV3-TATp53C′ peptide for 48 h. Cell viability was assessed by trypan blue exclusion. Data represents the mean and standard error from three independent experiments. (b) DV3-TATp53C′ and TATp53C′ peptides induce similar level of p53-dependent G1 cell cycle arrest in CXCR4 non-expressing TA3/St mammary carcinoma cells. Cells were treated with 5 μM peptide for 24 hours and analyzed for DNA content by flow cytometry. (c) DV3-TATp53C′, TATp53C′ and control DV3 peptide (30 μM) have no effect on CXCR4 non-expressing, p53-deficient H1299 lung adenocarcinoma cells. […] Cells were treated with indicated concentrations of cdk2 antagonists TAT-RxL or DV3-TAT-RxL peptides for 48 h. Cell viability was assessed by trypan blue exclusion. Data represents the mean and standard error from three independent experiments. […] Apoptosis was determined by <2N DNA content as measured by flow cytometry and DNA staining.
(§2) Cell Culture and Flow Cytometry. […] Short-term cell viability was assessed by counting Trypan blue excluding cells on a hemocytometer. For cell cycle analysis, peptide treated cells were analyzed by FACS with 10 μg/ml propidium iodide in 0.5% NP-40. DNA profiles were analyzed using a FACScan and CellQuest software (Becton Dickinson, San Jose, Calif.).

[4] = tested on: H1299 lung adenocarcinoma cells; test: Peptide treatment of p53-deficient H1299 cells; type: cell-based, human; details: 30 μM peptide, FIG. 2C
Method: as §1, §2

Namalwa lymphoma cells = test: Mouse model of metastatic peritoneal lymphoma (survival); type: in vivo; details: SCID mice, Namalwa cells i.p., 180 nmol peptide once a day for 12 days, FIG. 5
Method: FIG. 5. Targeted DV3-TATp53C′ peptide has enhanced ability to treat mouse model of aggressive, metastatic peritoneal lymphoma. Namalwa lymphoma cells were intraperitoneally injected into SCID mice and allowed to proliferate for 48 hours. Mice were then injected once a day for 12 days with vehicle control (n=10), or 180 nmol DV3-TATp53C′ peptide (n=11), non-targeted, parental TATp53C′ peptide (n=5), or control DV3-only peptide (n=5).

CXCR4 receptor on human Namalwa Burkitt's lymphoma cells (human), sequence (P61073 whole entry, the tested form may be a part): as above

Work on DV3-TATp53C′ peptide yielded an IC50 [1] of under 10 nM.

For `CC(C)C[C@@H](N)C(=O)NCC(=O)N[C@H](C)C(=O)N[C@H](CO)C(=O)N[C@H](Cc1c[nH]c2ccccc12)C(=O)N[C@H](Cc1c[nH]cn1)C(=O)N[C@H](CCCNC(=N)N)C(=O)N1CCC[C@@H]1C(=O)N[C@H](CC(=O)O)C(=O)N[C@H](CCCCN)C(=O)NCC(=O)N[C@H](CCCNC(=N)N)C(=O)N[C@H](CCCNC(=N)N)C(=O)N[C@H](CCCNC(=N)N)C(=O)N[C@H](CCC(N)=O)C(=O)N[C@H](CCCNC(=N)N)C(=O)N[C@H](CCCNC(=N)N)C(=O)N[C@H](CCCCN)C(=O)N[C@H](CCCCN)C(=O)N[C@H](CCCNC(=N)N)C(=O)NCC(=O)O` [DV3-TAT], the “increased affinity for the CXCR4 receptor” value (CXCR4 receptor) was about 100 fold and the “cell viability / cell number (in words)” value ([2]; Namalwa cells, 48 h) was “minimal effects on cell number”.

For “[dL]G[dA][dS][dW][dH][dR][dP][dD][dK]G[dR][dR][dR][dQ][dR][dR][dK][dK][dR]G[dK][dK][dH][dR][dS][dT][dS][dQ]G[dK][dK][dS][dK][dL][dH][dS][dS][dH][dA][dR][dS]G [DV3-TATp53C′]”, the “reduction of cell number” value ([2]; 40 μM peptide, 48 h, trypan blue exclusion, FIG. 2A) was over 80%, the “cell killing in presence of excess competing DV3 peptide” value ([2]; Namalwa cells, 30 μM peptide co-administered with 200 μM DV3 peptide, 48 h, FIG. 3B) was “reduced the potency of DV3-TATp53C′ peptide to levels similar to that of parental TATp53C′ peptide” and the “cell viability / cell number (in words)” value ([2]; Namalwa cells, 48 h) was “decreased viability to a significantly greater extent than treatment with parental TAT-p53C′ peptide”. For the same molecule, the “cell number / cell killing (in words)” value ([2]; Namalwa cells, p53 peptides, FIG. 2A) was “enhanced cell killing”, the “G1 cell cycle arrest” value [3] was “induced a G1 arrest that was indistinguishable from treatment with parental TATp53C′ peptide” and the “effect on p53-deficient H1299 cells” value [4] was “little to no effect”. The median survival (Namalwa lymphoma cells) was 41 days.

Molecule DV3-TAT peptide has an IC50 [1] of under 10 nM and a fold increased affinity (against DV3 or TAT peptide alone) [1] of 100 fold.

[dL]G[dA][dS][dW][dH][dR][dP][dD][dK] [DV3 peptide (CXCR4 receptor ligand)] was tested, and the IC50 [1] was 1000 nM.

Reference: patent publication US20090098049A1, “Targeting transducible molecules to specific cell types” (The Regents of the University of California, priority 2004, published 2009)
